Measured values: patent publication US9637469B2, “Pyridine derivative” (Teijin Pharma Limited, priority 2012, dated 2017)
pIC50: −log10 of the molar value.

Target: T1, human URAT1 (Homo sapiens, UniProt Q96S37)
T1 construct: Full-length cDNA of human URAT1 (hURAT1)
T1 sequence (Q96S37 1-553): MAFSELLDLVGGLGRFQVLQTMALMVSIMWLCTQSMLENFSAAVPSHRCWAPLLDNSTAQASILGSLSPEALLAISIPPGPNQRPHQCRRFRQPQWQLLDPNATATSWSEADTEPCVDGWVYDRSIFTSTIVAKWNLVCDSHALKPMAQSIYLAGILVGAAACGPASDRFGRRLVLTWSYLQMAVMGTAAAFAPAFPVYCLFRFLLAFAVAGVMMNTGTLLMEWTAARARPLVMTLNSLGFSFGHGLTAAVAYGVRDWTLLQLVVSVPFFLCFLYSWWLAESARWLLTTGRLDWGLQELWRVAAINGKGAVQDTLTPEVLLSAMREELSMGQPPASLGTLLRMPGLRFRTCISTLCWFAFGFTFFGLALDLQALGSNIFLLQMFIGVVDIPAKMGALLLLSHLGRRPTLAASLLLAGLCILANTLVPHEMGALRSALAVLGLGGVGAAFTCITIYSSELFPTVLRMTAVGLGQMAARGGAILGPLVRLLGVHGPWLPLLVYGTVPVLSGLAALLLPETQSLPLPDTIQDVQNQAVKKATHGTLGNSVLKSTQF
Assay: Test for inhibition of uric acid transport using human URAT1-expressing cells;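 also: three stars up to 0.2 µM two stars 0.2-2 µM one star 2-20 µM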
Type: cell-based
Settings: HEK 293 cells expressing human URAT1, 14C-labeled uric acid 25 μM, uptake 37° C. for 5 min; for pIC50: read-out: Inhibitory Activity (IC50 of uric acid transport inhibition)
In short: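 HEK293 cells stably transfected with full-length hURAT1, preincubated 10 min at 37 °C in HBSS with NaCl replaced by Na gluconate. Uptake of 25 μM ¹⁴C-uric acid with compound ran 5 min at 37 °C, then scintillation counting. IC50 derived from % of DMSO-control URAT1-specific uptake.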

Inhibitory Activity (IC50 of uric acid transport inhibition) | pIC50 | Structure (SMILES)
* * * |  | CC(=O)c1cncc(-c2nc(C)c(C(=O)O)n2Cc2cc(Cl)ccc2Cl)c1 [Compound A183, 2-(5-acetylpyridin-3-yl)-1-(2,5-dichlorobenzyl)-4-methyl-1H-imidazole-5-carboxylic acid]
 | 4.70 to 5.70 | COc1cccc(F)c1Oc1cncc(-c2nc(C)c(C(=O)O)n2Cc2cc(Cl)ccc2Cl)c1 [Compound A184]
* * * |  | CCCOc1cncc(-c2nc(C)c(C(=O)O)n2Cc2cc(Cl)ccc2Cl)c1 [Compound A185, 1-(2,5-dichlorobenzyl)-4-methyl-2-(5-propoxypyridin-3-yl)-1H-imidazole-5-carboxylic acid]
 | 4.70 to 5.70 | Cc1nc(-c2cncc(OCCO)c2)n(Cc2cc(Cl)ccc2Cl)c1C(=O)O [Compound A186]
 | 4.70 to 5.70 | Cc1nc(-c2cncc(OCCCO)c2)n(Cc2cc(Cl)ccc2Cl)c1C(=O)O [Compound A187]
* * |  | Cc1nc(-c2cncc(OCC3CCCCC3)c2)n(Cc2cc(Cl)ccc2Cl)c1C(=O)O [Compound A189, 2-(5-(cyclohexylmethoxy)pyridin-3-yl)-1-(2,5-dichlorobenzyl)-4-methyl-1H-imidazole-5-carboxylic acid]
* * |  | Cc1nc(-c2cncc(OCc3ccccc3)c2)n(Cc2cc(Cl)ccc2Cl)c1C(=O)O [Compound A190, 2-(5-(benzyloxy)pyridin-3-yl)-1-(2,5-dichlorobenzyl)-4-methyl-1H-imidazole-5-carboxylic acid]
* * * |  | O=C(O)c1c(CO)nc(-c2cncc(Cl)c2)n1Cc1cc(Cl)ccc1Cl [Compound A191, 2-(5-chloropyridin-3-yl)-1-(2,5-dichlorobenzyl)-4-(hydroxymethyl)-1H-imidazole-5-carboxylic acid]
* * |  | CN(C)Cc1nc(-c2cncc(Cl)c2)n(Cc2cc(Cl)ccc2Cl)c1C(=O)O [Compound A192, 2-(5-chloropyridin-3-yl)-1-(2,5-dichlorobenzyl)-4-((dimethylamino)methyl)-1H-imidazole-5-carboxylic acid]
* * * |  | CCN(CC)Cc1nc(-c2cncc(Cl)c2)n(Cc2cc(Cl)ccc2Cl)c1C(=O)O [Compound A193, 2-(5-chloropyridin-3-yl)-1-(2,5-dichlorobenzyl)-4-((diethylamino)methyl)-1H-imidazole-5-carboxylic acid]
* * * |  | O=C(O)c1c(CN2CCCC2)nc(-c2cncc(Cl)c2)n1Cc1cc(Cl)ccc1Cl [Compound A194, 2-(5-chloropyridin-3-yl)-1-(2,5-dichlorobenzyl)-4-(pyrrolidin-1-ylmethyl)-1H-imidazole-5-carboxylic acid]
* * * |  | O=C(O)c1c(CN2CCCCC2)nc(-c2cncc(Cl)c2)n1Cc1cc(Cl)ccc1Cl [Compound A195, 2-(5-chloropyridin-3-yl)-1-(2,5-dichlorobenzyl)-4-(piperidin-1-ylmethyl)-1H-imidazole-5-carboxylic acid]
* * * |  | O=C(O)c1c(CN2CCOCC2)nc(-c2cncc(Cl)c2)n1Cc1cc(Cl)ccc1Cl [Compound A196, 2-(5-chloropyridin-3-yl)-1-(2,5-dichlorobenzyl)-4-(morpholinomethyl)-1H-imidazole-5-carboxylic acid]
* * * |  | CN1CCN(Cc2nc(-c3cncc(Cl)c3)n(Cc3cc(Cl)ccc3Cl)c2C(=O)O)CC1 [Compound A197, 2-(5-chloropyridin-3-yl)-1-(2,5-dichlorobenzyl)-4-((4-methylpiperazine-1-yl)methyl)-1H-imidazole-5-carboxylic acid]
 | 4.70 to 5.70 | O=C(O)c1c(CN2CCC(O)CC2)nc(-c2cncc(Cl)c2)n1Cc1cc(Cl)ccc1Cl [Compound A198]
* * |  | O=C(O)c1c(Cn2ccnc2)nc(-c2cncc(Cl)c2)n1Cc1cc(Cl)ccc1Cl [Compound A199, 4-((1H-imidazol-1-yl)methyl)-2-(5-chloropyridin-3-yl)-1-(2,5-dichlorobenzyl)-1H-imidazole-5-carboxylic acid]

Inhibitory Activity (IC50 of uric acid transport inhibition) | pIC50 | Structure (SMILES)
* * * |  | O=C(O)c1c(Cn2cccn2)nc(-c2cncc(Cl)c2)n1Cc1cc(Cl)ccc1Cl [Compound A200, 4-((1H-pyrazol-1-yl)methyl)-2-(5-chloropyridin-3-yl)-1-(2,5-dichlorobenzyl)-1H-imidazole-5-carboxylic acid]
 | 4.70 to 5.70 | NCc1nc(-c2cncc(Cl)c2)n(Cc2cc(Cl)ccc2Cl)c1C(=O)O [Compound A201]
* * * |  | CCCN1CCN(Cc2nc(-c3cncc(Cl)c3)n(Cc3cc(Cl)ccc3Cl)c2C(=O)O)CC1 [Compound A202, 2-(5-chloropyridin-3-yl)-1-(2,5-dichlorobenzyl)-4-((4-propylpiperazin-1-yl)methyl)-1H-imidazole-5-carboxylic acid]
* * |  | CS(=O)(=O)N1CCN(Cc2nc(-c3cncc(Cl)c3)n(Cc3cc(Cl)ccc3Cl)c2C(=O)O)CC1 [Compound A203, 2-(5-chloropyridin-3-yl)-1-(2,5-dichlorobenzyl)-4-((4-(methylsulfonyl)piperazin-1-yl)methyl)-1H-imidazole-5-carboxylic acid]
* * * |  | CCS(=O)(=O)N1CCN(Cc2nc(-c3cncc(Cl)c3)n(Cc3cc(Cl)ccc3Cl)c2C(=O)O)CC1 [Compound A204, 2-(5-chloropyridin-3-yl)-1-(2,5-dichlorobenzyl)-4-((4-(ethylsulfonyl)piperazin-1-yl)methyl)-1H-imidazole-5-carboxylic acid]
* * * |  | O=C(O)c1cnc(-c2cncc(Br)c2)n1Cc1cc(Cl)ccc1Cl [Compound A205, 2-(5-bromopyridin-3-yl)-1-(2,5-dichlorobenzyl)-1H-imidazole-5-carboxylic acid]
* * * |  | Cc1cncc(-c2ncc(C(=O)O)n2Cc2cc(Cl)ccc2Cl)c1 [Compound A206, 1-(2,5-dichlorobenzyl)-2-(5-methylpyridin-3-yl)-1H-imidazole-5-carboxylic acid]
* * * |  | O=C(O)c1c(C(F)F)nc(-c2cncc(Cl)c2)n1Cc1cc(Cl)ccc1Cl [Compound A207, 2-(5-chloropyridin-3-yl)-1-(2,5-dichlorobenzyl)-4-(difluoromethyl)-1H-imidazole-5-carboxylic acid]
* * * |  | Cc1nc(-c2cncc(C(F)F)c2)n(Cc2cc(Cl)ccc2Cl)c1C(=O)O [Compound A208, 1-(2,5-dichlorobenzyl)-2-(5-(difluoromethyl)pyridin-3-yl)-4-methyl-1H-imidazole-5-carboxylic acid]
* * * |  | C#Cc1nc(-c2cncc(Cl)c2)n(Cc2cc(Cl)ccc2Cl)c1C(=O)O [Compound A209, 2-(5-chloropyridin-3-yl)-1-(2,5-dichlorobenzyl)-4-ethynyl-1H-imidazole-5-carboxylic acid]
* * * |  | O=C(O)c1nc(-c2cncc(Cl)c2)n(Cc2cc(Cl)ccc2Cl)c1C(=O)O [Compound A210, 2-(5-chloropyridin-3-yl)-1-(2,5-dichlorobenzyl)-1H-imidazole-4,5-dicarboxylic acid]
* * * |  | CC(O)c1nc(-c2cncc(Cl)c2)n(Cc2cc(Cl)ccc2Cl)c1C(=O)O (centres unmarked) [Compound A211, 2-(5-chloropyridin-3-yl)-1-(2,5-dichlorobenzyl)-4-(1-hydroxyethyl)-1H-imidazole-5-carboxylic acid]
* * * |  | CC(C)(O)c1nc(-c2cncc(F)c2)n(Cc2cc(Cl)ccc2Cl)c1C(=O)O [Compound A212, 1-(2,5-dichlorobenzyl)-2-(5-fluoropyridin-3-yl)-4-(2-hydroxypropan-2-yl)-1H-imidazole-5-carboxylic acid]
* * * |  | CC(C)(O)c1nc(-c2cncc(Cl)c2)n(Cc2cc(Cl)ccc2Cl)c1C(=O)O [Compound A213, 2-(5-chloropyridin-3-yl)-1-(2,5-dichlorobenzyl)-4-(2-hydroxypropan-2-yl)-1H-imidazole-5-carboxylic acid]
* * * |  | Cc1cncc(-c2nc(C(C)(C)O)c(C(=O)O)n2Cc2cc(Cl)ccc2Cl)c1 [Compound A214, 1-(2,5-dichlorobenzyl)-4-(2-hydroxypropan-2-yl)-2-(5-methylpyridine-3-yl)-1H-imidazole-5-carboxylic acid]

Structure (SMILES) | Inhibitory Activity (IC50 of uric acid transport inhibition) | pIC50
Cc1nc(-c2cncc(OCC(C)C)c2)n(Cc2cc(Cl)ccc2Cl)c1C(=O)O [Compound A188, 1-(2,5-dichlorobenzyl)-2-(5-isobutoxypyridin-3-yl)-4-methyl-1H-imidazole-5-carboxylic acid] | * * * | 
